Measured values reported in PubChem BioAssay (NCI).
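These data come from cells grown in 96-well plates and exposed to compound for 48 hours at five concentrations. GI50 = concentration required for 50% inhibition of growth. TGI marks complete inhibition of growth.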

Assays:
Experiment in all cases: NCI tumour cell line growth inhibition, 48 h
MDA-MB-468 breast = test system: MDA-MB-468 breast
ACHN renal = test system: ACHN renal
RXF 393 renal = test system: RXF 393 renal
SK-MEL-2 melanoma = test system: SK-MEL-2 melanoma
PC-3 prostate = test system: PC-3 prostate
SNB-19 CNS = test system: SNB-19 CNS
NCI-H226 lung = test system: NCI-H226 lung
UACC-257 melanoma = test system: UACC-257 melanoma
HOP-62 NSCLC = test system: HOP-62 NSCLC
BT-549 breast = test system: BT-549 breast
A549 NSCLC = test system: A549 NSCLC
NCI-H460 lung = test system: NCI-H460 lung
IGROV1 ovarian = test system: IGROV1 ovarian
OVCAR-5 ovarian = test system: OVCAR-5 ovarian
CCRF-CEM leukemia = test system: CCRF-CEM leukemia
MALME-3M melanoma = test system: MALME-3M melanoma
UACC-62 melanoma = test system: UACC-62 melanoma
EKVX NSCLC = test system: EKVX NSCLC
RPMI-8226 leukemia = test system: RPMI-8226 leukemia
HCT-116 colon = test system: HCT-116 colon
SK-MEL-5 melanoma = test system: SK-MEL-5 melanoma
SF-268 CNS = test system: SF-268 CNS
SF-539 CNS = test system: SF-539 CNS
OVCAR-8 ovarian = test system: OVCAR-8 ovarian
NCI/ADR-RES ovarian = test system: NCI/ADR-RES ovarian
SK-OV-3 ovarian = test system: SK-OV-3 ovarian
A498 renal = test system: A498 renal
NCI-H23 lung = test system: NCI-H23 lung
KM12 colon = test system: KM12 colon
M14 melanoma = test system: M14 melanoma
CAKI-1 renal = test system: CAKI-1 renal
SF-295 CNS = test system: SF-295 CNS
U251 CNS = test system: U251 CNS
SK-MEL-28 melanoma = test system: SK-MEL-28 melanoma
MOLT-4 leukemia = test system: MOLT-4 leukemia
OVCAR-3 ovarian = test system: OVCAR-3 ovarian
HS 578T breast = test system: HS 578T breast
UO-31 renal = test system: UO-31 renal
HOP-92 NSCLC = test system: HOP-92 NSCLC
DU-145 prostate = test system: DU-145 prostate
LOX IMVI melanoma = test system: LOX IMVI melanoma
MDA-MB-435 = test system: MDA-MB-435
NCI-H522 lung = test system: NCI-H522 lung
MDA-MB-231 breast = test system: MDA-MB-231 breast
HCT-15 colon = test system: HCT-15 colon
TK-10 renal = test system: TK-10 renal
T-47D breast = test system: T-47D breast
OVCAR-4 ovarian = test system: OVCAR-4 ovarian
786-0 renal = test system: 786-0 renal
SN12C renal = test system: SN12C renal
HCC-2998 colon = test system: HCC-2998 colon
SNB-75 CNS = test system: SNB-75 CNS

`Cc1c2c(nn1C)CSCc1cc(n(C)n1)CSc1cc(c3ccccc3c1)OCCCc1c(C(=O)O)n(C)c3c-2c(Cl)ccc13` was tested, and the GI50 (MDA-MB-468 breast) was 0.185 µM and the TGI (MDA-MB-468 breast) was 0.487 µM.

Work on `CN(C)c1ccc2c(c1)OC(N)=C(C#N)C2c1ccc2c(c1)CCO2` (centres undefined) yielded a GI50 (MDA-MB-468 breast) of 0.117 µM and a TGI (MDA-MB-468 breast) of 47.7 µM.

`O=C(Nc1cccc(NC(=O)Nc2cc(C(F)(F)F)ccc2Cl)c1)Nc1cc(C(F)(F)F)ccc1Cl` was tested, and the GI50 (MDA-MB-468 breast) was 1.1 µM and the TGI (MDA-MB-468 breast) was 7.24 µM.

In the case of `CS(=O)(=O)c1nccc(-c2c(-c3ccc(F)c(OCc4ccc(F)cc4)c3)nc3sccn23)n1`, the GI50 (MDA-MB-468 breast) is reported as 2.43 µM and the TGI (MDA-MB-468 breast) is reported as 7.03 µM.

With `Nc1[nH]nc2nc(-c3cccs3)cc(C(F)(F)F)c12` the GI50 (MDA-MB-468 breast) was > 17.1 µM and the TGI (MDA-MB-468 breast) was > 25 µM.

With `COc1ccc2[nH]cc(-c3cc(N)n4nc(-c5c[nH]c6ccccc56)cc4n3)c2c1` the GI50 (ACHN renal) was 2.62 µM, the TGI (ACHN renal) was 6.99 µM and the GI50 (RXF 393 renal) was 1.38 µM. For the same molecule, the TGI (RXF 393 renal) was 3.48 µM, the GI50 (SK-MEL-2 melanoma) was 1.83 µM and the TGI (SK-MEL-2 melanoma) was 3.8 µM. The GI50 (PC-3 prostate) was 3.33 µM, the TGI (PC-3 prostate) was 14.8 µM and the GI50 (SNB-19 CNS) was 4.25 µM. For the same molecule, the TGI (SNB-19 CNS) was 14.8 µM, the GI50 (NCI-H226 lung) was 11.5 µM and the TGI (NCI-H226 lung) was 28 µM. For the same molecule, the GI50 (UACC-257 melanoma) was 1.73 µM, the TGI (UACC-257 melanoma) was 3.21 µM and the GI50 (HOP-62 NSCLC) was 3.14 µM. For the same molecule, the TGI (HOP-62 NSCLC) was 7.88 µM, the GI50 (BT-549 breast) was 13.3 µM and the TGI (BT-549 breast) was 26.1 µM. It also gave a GI50 (A549 NSCLC) of 3.14 µM, a TGI (A549 NSCLC) of 13.9 µM and a GI50 (NCI-H460 lung) of 2.74 µM. It also gave a TGI (NCI-H460 lung) of 7.59 µM, a GI50 (IGROV1 ovarian) of 4.52 µM and a TGI (IGROV1 ovarian) of 17 µM. The GI50 (OVCAR-5 ovarian) was 3.86 µM, the TGI (OVCAR-5 ovarian) was 13.4 µM and the GI50 (CCRF-CEM leukemia) was 2.6 µM. For the same molecule, the TGI (CCRF-CEM leukemia) was 6.46 µM, the GI50 (MALME-3M melanoma) was 1.7 µM and the TGI (MALME-3M melanoma) was 3.07 µM. It also gave a GI50 (UACC-62 melanoma) of 1.73 µM, a TGI (UACC-62 melanoma) of 3.16 µM and a GI50 (EKVX NSCLC) of 3.93 µM. For the same molecule, the TGI (EKVX NSCLC) was 15.9 µM, the GI50 (RPMI-8226 leukemia) was 2.37 µM and the TGI (RPMI-8226 leukemia) was 5.51 µM. It also gave a GI50 (HCT-116 colon) of 1.75 µM, a TGI (HCT-116 colon) of 3.12 µM and a GI50 (SK-MEL-5 melanoma) of 1.7 µM. For the same molecule, the TGI (SK-MEL-5 melanoma) was 3.07 µM, the GI50 (SF-268 CNS) was 9.09 µM and the TGI (SF-268 CNS) was 37.3 µM. For the same molecule, the GI50 (SF-539 CNS) was 1.68 µM, the TGI (SF-539 CNS) was 3.05 µM and the GI50 (OVCAR-8 ovarian) was 4.12 µM. For the same molecule, the TGI (OVCAR-8 ovarian) was 33.3 µM, the GI50 (NCI/ADR-RES ovarian) was 5.84 µM and the TGI (NCI/ADR-RES ovarian) was 24 µM. For the same molecule, the GI50 (SK-OV-3 ovarian) was 15 µM, the TGI (SK-OV-3 ovarian) was 33.1 µM and the GI50 (A498 renal) was 11.4 µM. For the same molecule, the TGI (A498 renal) was 24.4 µM, the GI50 (NCI-H23 lung) was 3.15 µM and the TGI (NCI-H23 lung) was 10.2 µM. It also gave a GI50 (KM12 colon) of 2.21 µM, a TGI (KM12 colon) of 5.01 µM and a GI50 (M14 melanoma) of 1.79 µM. The TGI (M14 melanoma) was 3.32 µM, the GI50 (CAKI-1 renal) was 2.32 µM and the TGI (CAKI-1 renal) was 6.44 µM. The GI50 (SF-295 CNS) was 1.83 µM, the TGI (SF-295 CNS) was 3.55 µM and the GI50 (U251 CNS) was 2.08 µM. For the same molecule, the TGI (U251 CNS) was 4.67 µM, the GI50 (SK-MEL-28 melanoma) was 1.72 µM and the TGI (SK-MEL-28 melanoma) was 3.1 µM. For the same molecule, the GI50 (MOLT-4 leukemia) was 2.25 µM, the TGI (MOLT-4 leukemia) was 6.05 µM and the GI50 (MDA-MB-468 breast) was 1.66 µM. It also gave a TGI (MDA-MB-468 breast) of 3.12 µM, a GI50 (OVCAR-3 ovarian) of 3.27 µM and a TGI (OVCAR-3 ovarian) of 16.6 µM. For the same molecule, the GI50 (HS 578T breast) was 6.69 µM, the TGI (HS 578T breast) was > 100 µM and the GI50 (UO-31 renal) was 1.86 µM. For the same molecule, the TGI (UO-31 renal) was 4.65 µM, the GI50 (HOP-92 NSCLC) was 3.04 µM and the TGI (HOP-92 NSCLC) was 11.9 µM. For the same molecule, the GI50 (DU-145 prostate) was 5.19 µM, the TGI (DU-145 prostate) was 19.3 µM and the GI50 (LOX IMVI melanoma) was 1.64 µM. The TGI (LOX IMVI melanoma) was 3.01 µM, the GI50 (MDA-MB-435) was 2.04 µM and the TGI (MDA-MB-435) was 4.11 µM. The GI50 (NCI-H522 lung) was 1.64 µM, the TGI (NCI-H522 lung) was 3.51 µM and the GI50 (MDA-MB-231 breast) was 1.91 µM. It also gave a TGI (MDA-MB-231 breast) of 3.58 µM, a GI50 (HCT-15 colon) of 1.66 µM and a TGI (HCT-15 colon) of 3.33 µM. For the same molecule, the GI50 (TK-10 renal) was 3.53 µM, the TGI (TK-10 renal) was 12.1 µM and the GI50 (T-47D breast) was 3.05 µM. For the same molecule, the TGI (T-47D breast) was 26.3 µM, the GI50 (OVCAR-4 ovarian) was 5.06 µM and the TGI (OVCAR-4 ovarian) was 17.8 µM. It also gave a GI50 (786-0 renal) of 1.57 µM, a TGI (786-0 renal) of 3 µM and a GI50 (SN12C renal) of 10.1 µM. For the same molecule, the TGI (SN12C renal) was 22.8 µM, the GI50 (HCC-2998 colon) was 1.77 µM and the TGI (HCC-2998 colon) was 3.38 µM. For the same molecule, the GI50 (SNB-75 CNS) was 11.2 µM and the TGI (SNB-75 CNS) was 29.2 µM.
